In the NIST ThermoML archive (doi:10.1016/j.jct.2014.01.006):
Where “and” joins values, the source holds several entries; their conditions need not be identical. Equal values may be shown once.

Key:
[1] = for vapor or sublimation pressure: Liquid, Ebulliometric method (Recirculating still); for Triple point temperature: Adiabatic calorimetry
[2] = Molar enthalpy of transition or fusion; details: Crystal; Adiabatic calorimetry
[3] = molar heat capacity at saturation pressure

c1ccc(-c2ccc3ccccc3c2)cc1 [2-phenylnaphthalene]
[1]
Details	Triple point temperature [K]	vapor or sublimation pressure [kPa]
482.85 K	–	1.996
502.83 K	–	3.998
511.75 K	–	5.335
524.93 K	–	7.993
534.9 K	–	10.67
542.89 K	–	13.33
551.2 K	–	16.66
558.16 K	–	19.95
567.23 K	–	25.03
576.35 K	–	31.16
585.57 K	–	38.56
594.82 K	–	47.36
604.12 K	–	57.8
Crystal	374.77	–
Metastable crystal	331.4	–

Details	Molar enthalpy of transition or fusion [kJ/mol]
[2]	22.62

[3]
Details	molar heat capacity
5.559 K, Metastable crystal, Vacuum adiabatic calorimetry	0.7317 J/K/mol
6.48 K, Metastable crystal, Vacuum adiabatic calorimetry	1.172 J/K/mol
7.437 K, Metastable crystal, Vacuum adiabatic calorimetry	1.821 J/K/mol
8.415 K, Metastable crystal, Vacuum adiabatic calorimetry	2.519 J/K/mol
9.445 K, Metastable crystal, Vacuum adiabatic calorimetry	3.484 J/K/mol
10.55 K, Metastable crystal, Vacuum adiabatic calorimetry	4.639 J/K/mol
11.76 K, Metastable crystal, Vacuum adiabatic calorimetry	5.912 J/K/mol
13.12 K, Metastable crystal, Vacuum adiabatic calorimetry	7.541 J/K/mol
14.58 K, Metastable crystal, Vacuum adiabatic calorimetry	9.304 J/K/mol
16.16 K, Metastable crystal, Vacuum adiabatic calorimetry	11.42 J/K/mol
17.89 K, Metastable crystal, Vacuum adiabatic calorimetry	13.64 J/K/mol
19.78 K, Metastable crystal, Vacuum adiabatic calorimetry	16.13 J/K/mol
21.84 K, Metastable crystal, Vacuum adiabatic calorimetry	18.86 J/K/mol
24.08 K, Metastable crystal, Vacuum adiabatic calorimetry	21.79 J/K/mol
26.55 K, Metastable crystal, Vacuum adiabatic calorimetry	25.04 J/K/mol
29.3 K, Metastable crystal, Vacuum adiabatic calorimetry	28.54 J/K/mol
32.36 K, Metastable crystal, Vacuum adiabatic calorimetry	32.33 J/K/mol
35.77 K, Metastable crystal, Vacuum adiabatic calorimetry	36.35 J/K/mol
39.57 K, Metastable crystal, Vacuum adiabatic calorimetry	40.62 J/K/mol
43.81 K, Metastable crystal, Vacuum adiabatic calorimetry	45.16 J/K/mol
48.55 K, Metastable crystal, Vacuum adiabatic calorimetry	49.75 J/K/mol
53.87 K, Metastable crystal, Vacuum adiabatic calorimetry	54.71 J/K/mol
54.57 K, Metastable crystal, Vacuum adiabatic calorimetry	55.24 J/K/mol
59.82 K, Metastable crystal, Vacuum adiabatic calorimetry	59.78 J/K/mol
59.83 K, Metastable crystal, Vacuum adiabatic calorimetry	59.82 J/K/mol
65.64 K, Metastable crystal, Vacuum adiabatic calorimetry	64.42 J/K/mol
66.41 K, Metastable crystal, Vacuum adiabatic calorimetry	64.99 J/K/mol
72.14 K, Metastable crystal, Vacuum adiabatic calorimetry	69.36 J/K/mol
79.33 K, Metastable crystal, Vacuum adiabatic calorimetry	74.52 J/K/mol
84.66 K, Metastable crystal, Vacuum adiabatic calorimetry	78.26 J/K/mol
87.38 K, Metastable crystal, Vacuum adiabatic calorimetry	80.02 J/K/mol
91.53 K, Metastable crystal, Vacuum adiabatic calorimetry	82.9 J/K/mol
96.29 K, Metastable crystal, Vacuum adiabatic calorimetry	86.19 J/K/mol
100.11 K, Metastable crystal, Vacuum adiabatic calorimetry	88.71 J/K/mol
109.67 K, Metastable crystal, Vacuum adiabatic calorimetry	95.07 J/K/mol
119.51 K, Metastable crystal, Vacuum adiabatic calorimetry	101.67 J/K/mol
129.29 K, Metastable crystal, Vacuum adiabatic calorimetry	108.34 J/K/mol
139.13 K, Metastable crystal, Vacuum adiabatic calorimetry	115.15 J/K/mol
149.04 K, Metastable crystal, Vacuum adiabatic calorimetry	122.22 J/K/mol
159.05 K, Metastable crystal, Vacuum adiabatic calorimetry	129.45 J/K/mol
169.13 K, Metastable crystal, Vacuum adiabatic calorimetry	137.04 J/K/mol
179.22 K, Metastable crystal, Vacuum adiabatic calorimetry	144.69 J/K/mol
189.28 K, Metastable crystal, Vacuum adiabatic calorimetry	152.55 J/K/mol
199.33 K, Metastable crystal, Vacuum adiabatic calorimetry	160.58 J/K/mol
210.43 K, Metastable crystal, Vacuum adiabatic calorimetry	169.63 J/K/mol
222.54 K, Metastable crystal, Vacuum adiabatic calorimetry	179.67 J/K/mol
234.7 K, Metastable crystal, Vacuum adiabatic calorimetry	190.12 J/K/mol
246.9 K, Metastable crystal, Vacuum adiabatic calorimetry	200.49 J/K/mol
260.13 K, Metastable crystal, Vacuum adiabatic calorimetry	212.11 J/K/mol
274.34 K, Metastable crystal, Vacuum adiabatic calorimetry	224.81 J/K/mol
281.75 K, Metastable crystal, Vacuum adiabatic calorimetry	231.62 J/K/mol
287.18 K, Metastable crystal, Vacuum adiabatic calorimetry	236.87 J/K/mol
288.45 K, Metastable crystal, Vacuum adiabatic calorimetry	238 J/K/mol
288.88 K, Metastable crystal, Vacuum adiabatic calorimetry	238.28 J/K/mol
289.67 K, Metastable crystal, Vacuum adiabatic calorimetry	239.32 J/K/mol
290.86 K, Metastable crystal, Vacuum adiabatic calorimetry	240.77 J/K/mol
297.62 K, Metastable crystal, Vacuum adiabatic calorimetry	247.26 J/K/mol
302.22 K, Metastable crystal, Vacuum adiabatic calorimetry	251.81 J/K/mol
303.66 K, Metastable crystal, Vacuum adiabatic calorimetry	253.46 J/K/mol
304.26 K, Metastable crystal, Vacuum adiabatic calorimetry	253.82 J/K/mol
305.95 K, Metastable crystal, Vacuum adiabatic calorimetry	255.73 J/K/mol
316.27 K, Metastable crystal, Vacuum adiabatic calorimetry	265.74 J/K/mol
319.32 K, Metastable crystal, Vacuum adiabatic calorimetry	269.07 J/K/mol
319.63 K, Metastable crystal, Vacuum adiabatic calorimetry	269.43 J/K/mol
323.18 K, Metastable crystal, Vacuum adiabatic calorimetry	273.51 J/K/mol
328.64 K, Metastable crystal, Vacuum adiabatic calorimetry	281.65 J/K/mol
334.1 K, Crystal, Vacuum adiabatic calorimetry	295.45 J/K/mol
339.55 K, Crystal, Vacuum adiabatic calorimetry	300.3 J/K/mol
340.55 K, Crystal, Vacuum adiabatic calorimetry	301.83 J/K/mol
345.85 K, Crystal, Vacuum adiabatic calorimetry	308.66 J/K/mol
346.7 K, Crystal, Vacuum adiabatic calorimetry	310.38 J/K/mol
352.89 K, Crystal, Vacuum adiabatic calorimetry	319.98 J/K/mol
354.52 K, Crystal, Vacuum adiabatic calorimetry	323.81 J/K/mol
355.25 K, Crystal, Vacuum adiabatic calorimetry	323.51 J/K/mol
356.41 K, Crystal, Vacuum adiabatic calorimetry	326.01 J/K/mol
360.85 K, Crystal, Vacuum adiabatic calorimetry	334.71 J/K/mol
364.78 K, Crystal, Vacuum adiabatic calorimetry	343.22 J/K/mol
365.47 K, Crystal, Vacuum adiabatic calorimetry	344.57 J/K/mol
365.99 K, Crystal, Vacuum adiabatic calorimetry	347.25 J/K/mol
368.76 K, Crystal, Vacuum adiabatic calorimetry	353.17 J/K/mol
381.15 K, Liquid, Vacuum adiabatic calorimetry	364.06 J/K/mol
381.64 K, Liquid, Vacuum adiabatic calorimetry	364.18 J/K/mol
382.95 K, Liquid, Vacuum adiabatic calorimetry	365.06 J/K/mol
388.39 K, Liquid, Vacuum adiabatic calorimetry	368.05 J/K/mol
390.22 K, Liquid, Vacuum adiabatic calorimetry	369.13 J/K/mol
405.19 K, Liquid, Vacuum adiabatic calorimetry	377.51 J/K/mol
410.1 K, Liquid, Small sample (50 mg) DSC	380.3 J/K/mol and 382.63 J/K/mol
422.04 K, Liquid, Vacuum adiabatic calorimetry	386.86 J/K/mol
430 K, Liquid, Small sample (50 mg) DSC	394.6 J/K/mol and 391.03 J/K/mol
436.24 K, Liquid, Vacuum adiabatic calorimetry	394.72 J/K/mol
450 K, Liquid, Small sample (50 mg) DSC	405.58 J/K/mol and 401.51 J/K/mol
470.1 K, Liquid, Small sample (50 mg) DSC	411.15 J/K/mol and 413.48 J/K/mol
490 K, Liquid, Small sample (50 mg) DSC	424.7 J/K/mol and 423.46 J/K/mol
510 K, Liquid, Small sample (50 mg) DSC	434.93 J/K/mol and 427.36 J/K/mol
530.1 K, Liquid, Small sample (50 mg) DSC	446.82 J/K/mol and 444.24 J/K/mol
550.1 K, Liquid, Small sample (50 mg) DSC	457.21 J/K/mol and 455.97 J/K/mol
570.1 K, Liquid, Small sample (50 mg) DSC	468.27 J/K/mol and 467.27 J/K/mol
590.1 K, Liquid, Small sample (50 mg) DSC	477.92 J/K/mol and 476.09 J/K/mol
610.1 K, Liquid, Small sample (50 mg) DSC	484.48 J/K/mol and 484.15 J/K/mol
